From PMC10108821, “Three tyrosine kinase inhibitors cause cardiotoxicity by inducing endoplasmic reticulum stress and inflammation in cardiomyocytes” (BMC Medicine, 2023)

How the values were obtained:
NRCMs [1] = test: Lipid peroxidation by C11-bodipy 581/591 and flow cytometry; conditions: 100 µM, 3 hours, Fig. S15
Description: For ROS assessment, cells were washed with PBS once and stained with 10μM H2DCFHDA (MCE) in phenol red-free DMEM (Procell) in a humid incubator with 5% CO2 at 37°C for 30 minutes. Cells were washed with PBS twice and dissociated to single cells before flow cytometry analysis at the FITC channel. For lipid peroxidation measurement, cells were washed with PBS once and stained with 2μM C11-bodipy^581/591 (Cayman) in phenol red-free DMEM (Procell) in a humid incubator with 5% CO2 at 37°C for 30 minutes. Cells were washed with PBS twice and dissociated to single cells before flow cytometry analysis at both the FITC and the PE channels. Fluorescence of the oxidized C11-bodipy were acquired through the FITC channel (Ex/Em=488/520nm) and that of the non-oxidized C11-bodipy through the PE channel (Ex/Em=555/624nm).

Cor.4U hiPSC-CMs [2] = test: 3'DGE-UMI RNAseq transcriptome of hiPSC-CMs; conditions: for expression of mitochondrial tRNA and electron transfer chain genes: high PC2 loadings; for expression of genes associated with heart contraction: Cluster 4, day 3 or day 5
HELP hiPSC-CMs = test: CardioExcyte 96 microelectrode array: base impedance and extracellular field potential; assay type: cell-based, human; conditions: fixed doses: 10 µM, crizotinib and ponatinib 3.16 µM; up to 24 h
Description: HELP hiPSC-CMs were seeded evenly into the 96-well microelectrode array, NSP-96 0.6mm sensor plate (Nanion technologies), at 50,000 cells per well. Measurements were started after 3-5 days of culture of these cells and until the impedance and the extracellular field potential are stable. Measurements were taken a few times before drug addition, and every 30~60 minutes after the drugs were added at 2x concentration. Values were averaged from 3 wells per group. Beat rate, amplitude of impedance, base impedance and FPDc were calculated by the Cardio Excyte Control 96 software package (Nanion Technologies).

NRCMs [3] = test: Seahorse assay: oxygen consumption and extracellular acidification; assay type: cell-based, rat; conditions: 24 h; fixed doses: 10 µM, crizotinib and ponatinib 3.16 µM
Description: (§1) Rats were euthanized by decapitation and thoracic cavity was opened with scissors and hearts were popped out of the opening gently with fingers. Hearts were clipped and put in HBSS immediately; 20–40 hearts were collected into one sterile vial containing a magnetic stir bar and 1 mL digestive media made of 0.1% trypsin (Macklin) and 0.05% collagenase (Gibco) in HBSS. Hearts were minced until they were uniform in size. Digestive media was added to 10 mL for 40 hearts and stirred gently for 6 min. Supernatant was discarded and the digestion was repeated once; 10 mL digestive media was added and stirred gently for 10 min. The supernatant with cells were collected and the digestion and collection were repeated 4 times. Cells were centrifuged at 1200 rpm for 5 min, resuspended in media (Dulbecco’s modified Eagleʼs medium (Gibco)) with 10% fetal bovine serum (FBS; VISTECH), 1% penicillin–streptomycin, and 1% 0.1 M 5-bromo-2-deoxyuridine solution (Shanghai Yuanye) and filtered through a 40-μm cell strainer. Cells were seeded on a 100-mm plastic dish and cultured in a 5% CO2 incubator at 37 °C for 2 h to allow non-myocytes to adhere to the plate. The dish was swirled and media gently pipetted up and down to detach lightly attached cardiomyocytes. The collected myocytes were seeded in the same media described before; 48 h after plating, medium was exchanged to fresh DMEM (Gibco) with or without 2% FBS. All drug treatments were performed after this media change.
NRCMs were seeded evenly into the Seahorse XF96 cell culture plates (Agilent) and cultured in DMEM high glucose with 2% FBS. About 2 hours before the test, cells were moved to a non-CO2 incubator at 37 ° C and incubated for 1 hour. 1 hour prior to the test, culture media was replaced with the Seahorse Basal DMEM at 37°C (with appropriate concentration of glucose, 4mM L-glutamine, 1 mM sodium pyruvate and 1% penicillin-streptomycin solution) and incubated in a non-CO2 incubator at 37°C for 1 hour. Drugs were prepared at 8x to 10x concentrations with the corresponding seahorse media as in each well and added into ports of Seahorse XF96 cartridge plates which have been hydrated overnight. XFe96 Extracellular Flux Analyzer (Agilent) was used to measure oxygen consumption rate and extracellular acidification rate of cells with different drug treatments.

patients = conditions: cited from earlier work; for level of cardiotoxicity based on literature reports: ref Table S1, 2, 4, 26–36
Cor.4U hiPSC-CMs [4] = test: ATP level (CellTiter-Glo) in hiPSC-CMs; assay type: cell-based, human; conditions: for effect on ATP levels: 0.32 to 10 µM, day 1 to day 5; for dose-dependent toxicity (ATP fold changes): day 1, different doses; for dose-dependent toxicity (ATP fold changes) / time-dependent toxicity (ATP fold changes): RNAseq conditions; for time-dependent toxicity (ATP fold changes): fixed dose over 5 days
Description: ATP content was measured using the CellTiter-Glo Luminescent Cell Viability Assay (Promega) following the manufacturer’s protocol. After adding CellTiter-Glo reagents and incubation, luminescence was quantified using a Synergy H1 plate reader (BioTek Instruments). ATP standards were prepared from 0.01 to 5 μM. For each drug, we fitted a four-parameter log-logistic model to calculate ED50 at day 5 (Fig S1). To rank the cellular toxicity of the eight TKIs (Fig 1T), we calculated (EC50-Cmax)/(EC50+Cmax) and arranged from the smallest to the biggest for increasing cellular toxicity.

NRCMs [5] = test: Mitochondrial membrane potential by TMRE staining; assay type: cell-based, rat; conditions: 24 h of treatment
Description: Fig S3 Mitochondrial membrane potential changes in response to TKIs. (A) Raw images of TMRE staining in NRCMs treated with different drugs. (B) Fold changes in mitochondrial membrane potential at different treatments.

ER stress genes in NRCMs = test: qRT-PCR of ER stress genes in NRCMs; assay type: cell-based, rat; conditions: trolox 1 mM with afatinib or sorafenib
Description: as §1, with “The collected myocytes were seeded in the same media described before; 48 h after plating, medium was exchanged to fresh DMEM (Gibco) with or without 2% FBS.” left out
RNA was isolated based on a standard protocol using TRIzol reagent (Vazyme). TRIzol (1ml per 1 well of a 6-well plate) was used to lyse cells and chloroform was added for RNA separation. Samples were shaked vigorously by hand for 15 seconds and incubated at room temperature for 2-3 minutes. RNA was present in the aqueous phase after centrifuge at 12000 x g for 15 minutes. Isopropyl alcohol was mixed to precipitate RNA from the aqueous phase. […] 1 μg total RNA was used for cDNA synthesis using a reverse transcription kit (Bioman). We then measured expression of genes of interest with SYBRR Green qPCR Mix (Bioman) using Applied Biosystems 7500 Quantitative PCR Instrument. Gene expression was normalized to the 18S ribosomal RNA expression and primers were listed in Primers Table.

NRCMs [6] = conditions: ISRIB 200 nM or 4μ8c 10 μM with 10 µM sorafenib, 24-hr
Description: After treatment, cells were stained with 5 μg/mL Propidium iodide (Sigma-Aldrich) mixed with Hoechst33342 (Solarbio) in Phenol red-free DMEM (Procell) in a 5% CO2 incubator at 37°C for 30 minutes. Images of PI staining were acquired through the filter Ex/Em=555/624nm and of the nuclei staining through the filter Ex/Em=405/452 using ImageXpress Micro Confocal-AWES (Molecular Devices).

NRCMs [7] = test: qRT-PCR of fetal, pro-inflammatory and ER stress genes with pathway-selective inhibitors; assay type: cell-based, rat; conditions: 24 h
Description: as §1
(§2) RNA was isolated based on a standard protocol using TRIzol reagent (Vazyme). TRIzol (1ml per 1 well of a 6-well plate) was used to lyse cells and chloroform was added for RNA separation. Samples were shaked vigorously by hand for 15 seconds and incubated at room temperature for 2-3 minutes. RNA was present in the aqueous phase after centrifuge at 12000 x g for 15 minutes. Isopropyl alcohol was mixed to precipitate RNA from the aqueous phase. RNA precipitations were washed with 75% ethanol once and re-dissolved in RNase-free water. 1 μg total RNA was used for cDNA synthesis using a reverse transcription kit (Bioman). We then measured expression of genes of interest with SYBRR Green qPCR Mix (Bioman) using Applied Biosystems 7500 Quantitative PCR Instrument. Gene expression was normalized to the 18S ribosomal RNA expression and primers were listed in Primers Table.

H9C2 cell line = test: qRT-PCR of inflammatory genes in H9C2 cells; assay type: cell-based, rat; conditions: ISRIB 200 nM or salubrinal 20 μM with 3 TKIs, 24-hr
Description: as §2
H9C2 cells were a gift from Dr. Rong Qi in Peking University Health Science Center (they were originally purchased from the Cell Bank/Stem cell bank, Chinese Academy of Science). […] Media was changed to DMEM (Gibco) containing 2% FBS 12 hours before treatment. All treatments were performed under DMEM containing 2% FBS.

| Structure (SMILES) | effect on beat rate, contraction, base impedance and corrected field potential duration (HELP hiPSC-CMs) | basal oxygen consumption rate (OCR) (NRCMs [3]) | level of cardiotoxicity based on literature reports (patients) | effect on ATP levels (Cor.4U hiPSC-CMs [4]) | dose-dependent toxicity (ATP fold changes) (Cor.4U hiPSC-CMs [4]) | other results |
| --- | --- | --- | --- | --- | --- | --- |
| CC(C)(OO)c1ccccc1 [cumene hydroperoxide] |  |  |  |  |  | level of lipid peroxidation, positive control (NRCMs [1]): 42% |
| C[C@@H](Oc1cc(-c2cnn(C3CCNCC3)c2)cnc1N)c1c(Cl)ccc(F)c1Cl [crizotinib] | stopped beating and contraction of hiPSC-CMs after 0.5 h of treatment | trend of inhibiting basal oxygen consumption rate (OCR) | medium-levels of cardiotoxicity | dose-dependent and time-dependent reduction in ATP levels | dose-dependent toxicity | expression of mitochondrial tRNA and electron transfer chain genes (Cor.4U hiPSC-CMs [2]): upregulated |
| CCN(CC)CCNC(=O)c1c(C)[nH]c(/C=C2\C(=O)Nc3ccc(F)cc32)c1C [sunitinib] | increased beat rate initially and reduced the base impedance very acutely | trend of inhibiting basal oxygen consumption rate (OCR) | high-levels of cardiotoxicity | dose-dependent and time-dependent reduction in ATP levels | dose-dependent toxicity | expression of mitochondrial tRNA and electron transfer chain genes (Cor.4U hiPSC-CMs [2]): upregulated; maximal, spare and non-mitochondrial oxygen consumption (NRCMs [3]): inhibited maximal, spare, and non-mitochondrial oxygen consumption significantly; mitochondrial membrane potential (NRCMs [5]): trend of decreasing mitochondrial membrane potentials; congestive heart failure (patients; meta-analysis of 6935 patients): 4.1%; time-dependent toxicity (ATP fold changes) (Cor.4U hiPSC-CMs [4]): increasing toxicity with treatment duration |
| Cc1cn(-c2cc(NC(=O)c3ccc(C)c(Nc4nccc(-c5cccnc5)n4)c3)cc(C(F)(F)F)c2)cn1 [nilotinib] | minimal effects on these parameters |  | medium-levels of cardiotoxicity | dose-dependent and time-dependent reduction in ATP levels |  | mitochondrial membrane potential (NRCMs [5]): trend of decreasing mitochondrial membrane potentials; EC50 (ATP) compared with maximal plasma concentration (Cmax) (Cor.4U hiPSC-CMs [4]; day 5): lower than or similar to their maximal plasma concentrations (Cmax) |
| Cc1c(C)c2c(c(C)c1O)CCC(C)(C(=O)O)O2 (stereo not drawn) [trolox] |  |  |  |  |  | effect on induction of ER stress by TKIs (ER stress genes in NRCMs): did not block the induction of ER stress by these TKIs |
| COc1cc2ncnc(Nc3ccc(F)c(Cl)c3)c2cc1OCCCN1CCOCC1 [gefitinib] | minimal effects on these parameters |  | low cardiotoxicity | did not inhibit ATP at any dose or time point tested | did not | expression of genes associated with heart contraction (Cor.4U hiPSC-CMs [2]): upregulated |
| Cc1nc(Nc2ncc(C(=O)Nc3c(C)cccc3Cl)s2)cc(N2CCN(CCO)CC2)n1 [dasatinib] | minimal effects on these parameters | trend of inhibiting basal oxygen consumption rate (OCR) | medium-levels of cardiotoxicity | did not inhibit ATP at any dose or time point tested | did not | expression of genes associated with heart contraction (Cor.4U hiPSC-CMs [2]): upregulated; time-dependent toxicity (ATP fold changes) (Cor.4U hiPSC-CMs [4]): increasing toxicity with treatment duration |
| Cc1cc(=O)oc2c(C=O)c(O)ccc12 [4μ8c] |  |  |  |  |  | rescue from cell death induced by sorafenib (NRCMs [6]): significantly rescued cardiac cell from death induced by sorafenib; induction of inflammatory genes and cardiac fetal genes (Anp, Bnp/Nppb, Myh6) by TKIs (NRCMs [7]; 4μ8c 10 μM co-treatment with TKIs): blunted; effect on Atf4, Ddit3, Xbp1s and Dnajb9 expression induced by TKIs (NRCMs [7]; ISRIB 200 nM or 4μ8c 10 μM with TKIs): inhibited Xbp1s and Dnajb9 without affecting the ATF4 axis |
| O=C(/C=C/c1ccccc1)NC(NC(=S)Nc1cccc2cccnc12)C(Cl)(Cl)Cl (stereo not drawn) [salubrinal] |  |  |  |  |  | expression of inflammatory genes induced by TKIs (H9C2 cell line): increased the expression level of some pro-inflammatory genes, such as Nfkb1, Il6, and Tnf, but not Il1b |
